# Measurements reported in patent publication EP0705258B1, “AZOLYL-CYCLIC AMINE DERIVATIVES WITH IMMUNOMODULATORY ACTIVITY” (Knoll AG, priority 1993, dated 1995).
# Tested on: paw oedema
# Test: Carrageenan-induced rat paw oedema test (Test E)
# Assay type: in vivo, rats
# Conditions: oral dosing at 100 mg/kg; active = 20% or greater inhibition of paw oedema in at least two out of three tests
# Procedure: Female rats, weight range 125-150 g were fasted overnight. One of the hind legs of each animal was marked with a line at the connection between the cuboid/navicular and calcaneus/talus bones. Groups of six rats were orally dosed at 10 ml/kg, in random order, with a given dose of the test compound given as a solution or suspension in 10% (w/v) aqueous acacia solution. One hour after dosing, 0.1 ml of 1% (w/v) sterile carrageenan λ in normal saline was injected deeply into the plantar surface of the marked hind foot of each rat. The volume of the foot (up to the marked line) was measured immediately after injection using duplicate water displacement readings. Three hours after injection the foot volume was measured again and the percentage increase in foot volume relative to the initial reading was calculated. The increase in foot volume (i.e. the degree of oedema) in drug treated animals when compared with that in the drug untreated control gave the degree of inhibition of paw oedema by the drug. […] Statistical significance was assessed using the Student's t test for single dose studies and Dunnett's test for multiple dose studies. More advantageous compounds were active in both Tests D and E.
row,Structure (SMILES),deemed to be active in Test E
1,"c1ccc(OCCN2CCC(CCn3ccnc3)CC2)cc1 [Example 87, 4-[2-(Imidazol-1-yl)ethyl]-1-(2-phenoxyethyl)piperidine]",active
2,"CC(c1ccc(Cl)cc1)N1CCC(CCn2ccnc2)CC1 (stereo not drawn) [Example 93, 1-[1-(4-chlorophenyl)ethyl]-4-[2-(imidazol-1-yl)-ethyl]piperidine]",active
3,"Cl.Cl.c1ccc(CCCN2CCC(CCn3ccnc3)CC2)cc1 [Example 98, 4-[2-(imidazol-1-yl)ethyl]-1-(3-phenylpropyl)piperidine dihydrochloride]",active
